Experimental data from patent publication US12410171B2, “Tropomyosin receptor kinase (TRK) degradation compounds and methods of use” (Cullgen (Shanghai), Inc., priority 2020, dated 2025).

target: T1, TPM3-TRKA fusion protein (Homo sapiens, UniProt P04629); test: TPM3-TRKA fusion protein levels in KM12 cells (Western blot); type: cell-based; conditions: 16 h; TPM3-TRKA degradation in KM12 cells at 10 nM compound, category of percentage degradation; read-out: Degradation (at 10 nM)
T1 construct: The resulted chimeric proteins always retain the kinase domain of TRK proteins; TPM3 (fusion partner, N-terminal part of tropomyosin alpha-3, P06753); endogenous in cells; host or cells: KM12 colon cancer cells; the other entry of the earlier key: TPM3 (P06753, Tropomyosin alpha-3 chain)
Experimental: KM12 cells were treated with DMSO or indicated compounds at 100 nM for 16 hours.
KM12 cells were treated with DMSO or indicated compounds at 0. 1 nM, 1 nM or 10 nM for 16 hours.
KM12 cells were treated with DMSO or indicated compounds at various concentrations for 16 hours.
KM12 cells were treated with DMSO or indicated compounds at various concentrations for 4 hours.
KM12 cells (a cancer model comprising a colon cancer cell line) were treated with DMSO or indicated compounds at various concentrations for 4 hours.
KM12 cells were treated with heterobifunctional compounds or their corresponding control compounds at 10 nM or 100 nM for 16 hours.
KM12 cells were treated with heterobifunctional compounds or their corresponding control compounds at 0.4-30 nM for 8-16 hours. […] Cells were authenticated using the short tandem repeat (STR) assays. […] Stable cell lines were established by lentivirus transduction, selected and maintained in medium containing 1 μg/mL puromycin (Beyotime Biotechnology).
Cultured cells were washed with cold PBS once and lysed in cold RIPA buffer supplemented with protease inhibitors and phosphatase inhibitors (Beyotime Biotechnology). The solutions were then incubated at 4° C. for 30 minutes with gentle agitation to fully lyse cells. For tumor tissues, tumors were cut into small pieces, milled with cold RIPA buffer using a mechanical homogenizer and lysed for 1 hour at 4° C. Cell lysates were centrifuged at 13,000 rpm for 10 minutes at 4° C. and pellets were discarded. Total protein concentrations in the lysates were determined by BCA assays (Beyotime Biotechnology). Cell lysates were mixed with Laemmli loading buffer to 1× and heated at 99° C. for 5 min. Proteins were resolved on SDS-PAGE and visualized by chemiluminescence. Images were taken by a ChemiDoc MP Imaging system (Bio-Rad). Protein bands were quantitated using the software provided by Bio-Rad.

T1 sequence (P04629 with tags, fused parts or gaps): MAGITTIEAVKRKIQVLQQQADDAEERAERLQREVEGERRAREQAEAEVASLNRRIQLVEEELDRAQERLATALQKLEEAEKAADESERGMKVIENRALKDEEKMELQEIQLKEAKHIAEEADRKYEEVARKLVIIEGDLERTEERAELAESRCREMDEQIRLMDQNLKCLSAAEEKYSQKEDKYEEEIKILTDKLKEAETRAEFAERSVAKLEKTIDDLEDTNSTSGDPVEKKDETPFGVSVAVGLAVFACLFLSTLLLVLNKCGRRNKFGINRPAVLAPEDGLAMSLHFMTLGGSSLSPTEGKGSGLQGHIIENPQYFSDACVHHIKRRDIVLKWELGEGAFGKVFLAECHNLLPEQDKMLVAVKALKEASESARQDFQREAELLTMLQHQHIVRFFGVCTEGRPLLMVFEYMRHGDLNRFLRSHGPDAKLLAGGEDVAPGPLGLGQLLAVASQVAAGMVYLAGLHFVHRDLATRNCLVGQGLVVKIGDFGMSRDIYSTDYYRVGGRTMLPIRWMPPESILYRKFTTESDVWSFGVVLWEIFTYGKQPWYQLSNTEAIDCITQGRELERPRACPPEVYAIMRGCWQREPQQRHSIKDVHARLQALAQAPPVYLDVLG

`O=C1CCC(N2C(=O)c3cccc(NCCOCCOCCOCCOCCC(=O)N4CCN(c5cccc(-c6cnc7ccc(N8CCC[C@@H]8c8cccc(F)c8)nn67)n5)CC4)c3C2=O)C(=O)N1` (stereo partly drawn) [CPD-021, 2-(2,6-Dioxopiperidin-3-yl)-4-((15-(4-(6-(6-((R)-2-(3-fluorophenyl)pyrrolidin-1-yl)imidazo[1,2-b]pyridazin-3-yl)pyridin-2-yl)piperazin-1-yl)-15-oxo-3,6,9,12-tetraoxapentadecyl)amino) isoindoline-1,3-dione] and `O=C1CCC(N2C(=O)c3cccc(NCCOCCOCCC(=O)N4CCN(c5cccc(-c6cnc7ccc(N8CCC[C@@H]8c8cccc(F)c8)nn67)n5)CC4)c3C2=O)C(=O)N1` (stereo partly drawn) [CPD-028, 2-(2,6-Dioxopiperidin-3-yl)-4-((2-(2-(3-(4-(6-(6-((R)-2-(3-fluorophenyl)pyrrolidin-1-yl)imidazo[1,2-b]pyridazin-3-yl)pyridin-2-yl)piperazin-1-yl)-3-oxopropoxy)ethoxy)ethyl)amino) isoindoline-1,3-dione] cannot be ordered by percent degradation of TPM3-TRKA protein at 0.01 µM: greater than 80% for the first, greater than 80% for the second.

`O=C(CN1CCN(c2ccc(C(=O)Nc3n[nH]c4ccc(Cc5cc(F)cc(F)c5)cc34)c(NC3CCOCC3)c2)CC1)NCCOCCOCCOCCOCCNc1cccc2c1C(=O)N(C1CCC(=O)NC1=O)C2=O` (centres unmarked) [TR-150, N-(5-(3,5-Difluorobenzyl)-1H-indazol-3-yl)-4-(4-(17-((2˜ (2,6-dioxopiperidin-3-yl)-1,3-dioxoisoindolin-4-yl)amino)-2-oxo-6,9,12,15-tetraoxa-3-azaheptadecyl)piperazin-1-yl)-2˜ ((tetrahydro-2H-pyran-4-yl)amino)benzamide] and `O=C(CN1CCN(c2ccc(C(=O)Nc3n[nH]c4ccc(Cc5cc(F)cc(F)c5)cc34)c(NC3CCOCC3)c2)CC1)NCCCNc1cccc2c1C(=O)N(C1CCC(=O)NC1=O)C2=O` (centres unmarked) [TR-152, N-(5-(3,5-Difluorobenzyl)-1H-indazol-3-yl)-4-(4-(2-((3-((2-(2,6-dioxopiperidin-3,3-yl)-1,3-dioxoisoindolin-4-yl)amino)propyl)amino)-2-oxocthyl)piperazin-1-yl)-2-((tetrahydro-2H-pyran-4-yl)amino)benzamide] cannot be ordered by percent degradation of TPM3-TRKA protein at 0.01 µM: greater than 80% for the first, greater than 80% for the second.

`O=C1CCC(N2Cc3cc(C#CC4CCN(c5cccc(-c6cnc7ccc(N8CCC[C@@H]8c8cccc(F)c8)nn67)n5)CC4)ccc3C2=O)C(=O)N1` (stereo partly drawn) [TR-208, 3-(5-((1-(6-(6-((R)-2-(3-fluorophenyl)pyrrolidin-1-yl)imidazo[1,2-b]pyridazin-3-yl)pyridin-2-yl)piperidin-4-yl)ethynyl)-1-oxoisoindolin-2-yl)piperidine-2,6-dione] and `O=C1CCC(N2Cc3cc(C#CC(=O)N4CCN(c5cccc(-c6cnc7ccc(N8CCC[C@@H]8c8cccc(F)c8)nn67)n5)CC4)ccc3C2=O)C(=O)N1` (stereo partly drawn) [TR-203, 3-(5-(3-(4-(6-(6-((R)-2-(3-fluorophenyl)pyrrolidin-1-yl)imidazo[1,2-b]pyridazin-3-yl)pyridin-2-yl)piperazin-1-yl)-3-oxoprop-1-yn-1-yl)-1-oxoisoindolin-2-yl)piperidine-2,6-dione] fall in the same range of percent degradation of TPM3-TRKA protein at 0.01 µM: 50 to 80% for the first, 50 to 80% for the second.

`O=C1CCC(N2C(=O)c3ccc(NCCOCCOCCN4CCN(c5cccc(-c6cnc7ccc(N8CCC[C@H]8c8cccc(F)c8)nn67)n5)CC4)cc3C2=O)C(=O)N1` (stereo partly drawn) [TR-177, 2-(2,6-Dioxopiperidin-3-yl)-5-((2-(2-(2-(4-(6-(6-((S)-2-(3-fluorophenyl)pyrrolidin-1-yl)imidazo[1,2-b]pyridazin-3-yl)pyridin-2-yl)piperazin-1-yl)ethoxy)ethoxy)ethyl)amino) isoindoline-1,3-dione] and `O=C(CN1CCN(c2cccc(-c3cnc4ccc(N5CCC[C@@H]5c5cccc(F)c5)nn34)n2)CC1)NCCOCCOCCOCCNc1ccc2c(c1)C(=O)N(C1CCC(=O)NC1=O)C2=O` (stereo partly drawn) [TR-129, N-(2-(2-(2-(2-((2-(2,6-dioxopiperidin-3-yl)-1,3-dioxoisoindolin-5-yl)amino)ethoxy)ethoxy)ethoxy)ethyl)-2-(4-(6-(6-((R)-2-(3-fluorophenyl)pyrrolidin-1-yl)imidazo[1,2-b]pyridazin-3-yl)pyridin-2-yl)piperazin-1-yl)acetamide] cannot be ordered by percent degradation of TPM3-TRKA protein at 0.01 µM: greater than 80% for the first, greater than 80% for the second.

`O=C1CCC(N2C(=O)c3ccc(NCCOCCOCCC(=O)N4CCN(c5ccc(C(=O)Nc6n[nH]c7ccc(Cc8cc(F)cc(F)c8)cc67)c(NC6CCOCC6)c5)CC4)cc3C2=O)C(=O)N1` (centres unmarked) [TR-141, N-(5-(3,5-Difluorobenzyl)-1H-indazol-3-yl)-4-(4-(3-(2-(2-((2-(2,6-dioxopiperidin-3-yl)-1,3-dioxoisoindolin-5-yl)amino)ethoxy)ethoxy)propanoyl)piperazin-1-yl)-2-((tetrahydro-2H-pyran-4-yl)amino)benzamide] and `O=C1CCC(N2C(=O)c3ccc(NCCC(=O)N4CCN(c5ccc(C(=O)Nc6n[nH]c7ccc(Cc8cc(F)cc(F)c8)cc67)c(NC6CCOCC6)c5)CC4)cc3C2=O)C(=O)N1` (stereo not drawn) [TR-145, N—(S-(3,5-Difluorobenzyl)-1H-indazol-3-yl)-4-(4-(3-((2-(2,6-dioxopiperidin-3-yl)-1,3-dioxoisoindolin-S-yl)amino)propanoyl)piperazin-1-yl)-2-((tetrahydro-2H-pyran-4-yl)amino)benzamide] cannot be ordered by percent degradation of TPM3-TRKA protein at 0.01 µM: greater than 80% for the first, greater than 80% for the second.

`O=C(CN1CCN(c2ccc(C(=O)Nc3n[nH]c4ccc(Cc5cc(F)cc(F)c5)cc34)c(NC3CCOCC3)c2)CC1)NCCNc1ccc2c(c1)C(=O)N(C1CCC(=O)NC1=O)C2=O` (centres unmarked) [TR-165, N-(5-(3,5-Difluorobenzyl)-1H-indazol-3-yl)-4-(4-(2-((2-((2-(2,6-dioxopiperidin-3-yl)-1,3-dioxoisoindolin-5-yl)amino)ethyl)amino)-2-oxoethyl)piperazin-1-yl)-2-((tetrahydro-2H-pyran-4-yl)amino)benzamide] and `O=C(CN1CCN(c2ccc(C(=O)Nc3n[nH]c4ccc(Cc5cc(F)cc(F)c5)cc34)c(NC3CCOCC3)c2)CC1)NCCCCCNc1cccc2c1C(=O)N(C1CCC(=O)NC1=O)C2=O` (centres unmarked) [TR-149, N-(5-(3,5-Difluorobenzyl)-1H-indazol-3-yl)-4-(4-(2-((5-((2-(2,6-dioxopiperidin-3-yl)-1,3-dioxoisoindolin-4-yl)amino)pentyl)amino)-2-oxoethyl)piperazin-1-yl)-2-((tetrahydro-2H-pyran-4-yl)amino)benzamide] cannot be ordered by percent degradation of TPM3-TRKA protein at 0.01 µM: greater than 80% for the first, greater than 80% for the second.

`O=C1CCC(N2C(=O)c3ccc(NCCC(=O)N4CCN(c5cccc(-c6cnc7ccc(N8CCC[C@@H]8c8cccc(F)c8)nn67)n5)CC4)cc3C2=O)C(=O)N1` (stereo partly drawn) [TR-121, 2-(2,6-Dioxopiperidin-3-yl)-5-((3-(4-(6-(6-((R)-2-(3-fluorophenyl)pyrrolidin-1-yl)imidazo[1,2-b]pyridazin-3-yl)pyridin-2-yl)piperazin-1-yl)-3-oxopropyl)amino) isoindoline-1,3-dione] and `O=C1CCC(N2C(=O)c3cccc(NCCOCCC(=O)N4CCN(c5cccc(-c6cnc7ccc(N8CCC[C@@H]8c8cccc(F)c8)nn67)n5)CC4)c3C2=O)C(=O)N1` (stereo partly drawn) [CPD-027, 2-(2,6-Dioxopiperidin-3-yl)-4˜ ((2-(3-(4˜ (6-(6-((R)-2-(3-fluorophenyl)pyrrolidin-1-yl)imidazo[1,2-b]pyridazin-3-yl)pyridin-2-yl)piperazin-1-yl)-3-oxopropoxy)ethyl)amino) isoindoline-1,3-dione] cannot be ordered by percent degradation of TPM3-TRKA protein at 0.01 µM: greater than 80% for the first, greater than 80% for the second.

First: O=C(CN1CCN(c2cccc(-c3cnc4ccc(N5CCC[C@@H]5c5cccc(F)c5)nn34)n2)CC1)NCCCCCCNc1ccc2c(c1)C(=O)N(C1CCC(=O)NC1=O)C2=O (stereo partly drawn) [TR-128, N-(6-((2-(2,6-dioxopiperidin-3-yl)-1,3-dioxoisoindolin-5-yl)amino)hexyl)-2-(4-(6-(6-((R)-2-(3-fluorophenyl)pyrrolidin-1-yl)imidazo[1,2-b]pyridazin-3-yl)pyridin-2-yl)piperazin-1-yl)acetamide]
Second: Cc1ncsc1-c1ccc(CNC(=O)[C@@H]2C[C@@H](O)CN2C(=O)[C@@H](NC(=O)COCC(=O)N2CCN(c3ccc(C(=O)Nc4n[nH]c5ccc(Cc6cc(F)cc(F)c6)cc45)c(NC4CCOCC4)c3)CC2)C(C)(C)C)cc1 [CPD-045, (28,4R)-1-((S)-2-(2-(2-(4-(4-((5-(3,5˜Difluorobenzyl)-1H-indazol-3-yl)carbamoyl)-3-((tetrahydro-2H-pyran-4-yl)amino)phenyl)piperazin-1-yl)-2-oxoethoxy)acetamido)-3,3-dimethylbutanoyl)-4-hydroxy-N-(4-(4-methylthiazol-5-yl)benzyl)pyrrolidine-2-carboxamide]
The percent degradation of TPM3-TRKA protein at 0.01 µM of the first is higher: greater than 80% for the first, 50 to 80% for the second.

same assay, conditions: KM12 cells, 100 nM, indicated incubation time, Western blot (FIG. 2)

With `O=C1CCC(N2C(=O)c3cccc(NCCOCCC(=O)N4CCN(c5cccc(-c6cnc7ccc(N8CCC[C@@H]8c8cccc(F)c8)nn67)n5)CC4)c3C2=O)C(=O)N1` (stereo partly drawn) [CPD-027, 2-(2,6-Dioxopiperidin-3-yl)-4˜ ((2-(3-(4˜ (6-(6-((R)-2-(3-fluorophenyl)pyrrolidin-1-yl)imidazo[1,2-b]pyridazin-3-yl)pyridin-2-yl)piperazin-1-yl)-3-oxopropoxy)ethyl)amino) isoindoline-1,3-dione] the TPM3-TRKA protein levels was “rapidly reduced TPM3-TRKA protein levels”.
